Common to all, as to assay type: biochemical
For experiment [1], the target named is JAK3 (Homo sapiens (Human), UniProt P52333). Description: JAK3 Inhibition Assay (Example D, Omnia kinase fluorescence peptide substrate assay). The essentials:
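Omnia Sox-peptide kinetic read (ex 360 nm, em 485 nm, every 50 s over 45 min) tracked phosphorylation of 10 μM Y7 peptide by 2 nM recombinant JAK3 at 1 mM ATP. Buffer: 25 mM HEPES pH 7.4, 10 mM MgCl2, 0.01% Triton X-100, 1 mM DTT, with 2% DMSO final.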

Experiment [2] deals with Human Tyk2 kinase domain (Homo sapiens (Human), UniProt P29597). Description: Tyk2 Inhibition Assay (Example A, Omnia kinase fluorescence peptide substrate assay). The note with it: TYK2 Enzyme IC50 1 mM ATP, averaged IC50 ranges. The essentials:
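IC50 values come from a 4-parameter logistic fit of percent-of-control data, with compounds at 2% final DMSO. Reactions held 1 nM His-tag-cleaved Tyk2 (aa 886–1187), 8 μM Omnia Y12 peptide and 1 mM ATP in pH 7.4 HEPES buffer with 10 mM MgCl2, Triton X-100 and DTT. Sox fluorescence (360/485 nm) was monitored kinetically over 45 min.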

Experiment [3] deals with JAK1 (Homo sapiens (Human), UniProt P23458). Nature of the experiment: JAK1 Inhibition Assay (Example B, Omnia kinase fluorescence peptide substrate assay). The essentials: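 Kinetic fluorescence read (360 nm excitation, 485 nm emission, every 50 s over 45 min) of Omnia Y12 peptide (8 μM) phosphorylation by 12.5 nM human JAK1 at 1 mM ATP. Buffer: HEPES pH 7.4, MgCl2, Triton X-100, DTT; 2% DMSO. IC50 = concentration giving 50 POC on logistic curve.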
JAK1, sequence (P23458 whole entry): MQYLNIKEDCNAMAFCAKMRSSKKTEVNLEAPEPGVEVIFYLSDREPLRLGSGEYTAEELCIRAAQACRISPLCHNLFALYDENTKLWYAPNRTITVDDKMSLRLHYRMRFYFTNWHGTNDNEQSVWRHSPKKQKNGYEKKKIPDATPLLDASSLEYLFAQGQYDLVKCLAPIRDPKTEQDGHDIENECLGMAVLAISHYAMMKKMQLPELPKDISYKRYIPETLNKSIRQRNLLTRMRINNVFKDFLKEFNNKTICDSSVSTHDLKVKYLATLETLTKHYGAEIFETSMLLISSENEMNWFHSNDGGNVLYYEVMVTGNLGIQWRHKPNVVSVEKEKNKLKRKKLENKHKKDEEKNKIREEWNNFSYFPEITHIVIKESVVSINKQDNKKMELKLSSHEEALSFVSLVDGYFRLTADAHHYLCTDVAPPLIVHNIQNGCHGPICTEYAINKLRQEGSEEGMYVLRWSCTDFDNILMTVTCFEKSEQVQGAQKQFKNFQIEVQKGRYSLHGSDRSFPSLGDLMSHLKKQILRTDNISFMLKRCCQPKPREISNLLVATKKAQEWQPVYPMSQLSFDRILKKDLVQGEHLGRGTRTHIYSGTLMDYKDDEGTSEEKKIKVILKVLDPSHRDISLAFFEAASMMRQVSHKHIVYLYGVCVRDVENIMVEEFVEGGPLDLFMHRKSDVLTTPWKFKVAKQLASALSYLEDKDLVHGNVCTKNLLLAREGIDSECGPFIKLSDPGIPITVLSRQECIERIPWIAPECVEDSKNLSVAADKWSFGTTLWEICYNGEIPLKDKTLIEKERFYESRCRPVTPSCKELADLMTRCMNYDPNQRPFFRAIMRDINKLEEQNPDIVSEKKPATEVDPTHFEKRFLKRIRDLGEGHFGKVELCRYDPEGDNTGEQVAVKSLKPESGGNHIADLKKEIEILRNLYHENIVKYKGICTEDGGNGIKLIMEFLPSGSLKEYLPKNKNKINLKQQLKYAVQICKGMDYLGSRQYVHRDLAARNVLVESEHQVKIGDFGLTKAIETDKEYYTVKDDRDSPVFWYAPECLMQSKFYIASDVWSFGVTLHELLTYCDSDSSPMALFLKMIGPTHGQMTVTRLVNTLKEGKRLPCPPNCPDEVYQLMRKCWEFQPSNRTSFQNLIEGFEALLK

Experiment [4] deals with JAK2 (Homo sapiens (Human), UniProt O60674). Description: JAK2 Inhibition Assay (Example C, Omnia kinase fluorescence peptide substrate assay). The note with it: JAK2 Enzyme IC50 1 mM ATP, averaged IC50 ranges. The source says:
The assays described in Examples A, B, C and D for the determination of Tyk2, JAK1, JAK2 and JAK3 kinase activity, respectively, utilized the Omnia® Kinase fluorescence peptide substrate-based technology (Invitrogen). The specific components of the assay mixture are described in Examples A, B, C and D. In these assays, Mg^2+ is chelated upon phosphorylation of the Omnia peptide by the kinase to form a bridge between the chelation-enhanced fluorophore Sox and the phosphate, resulting in an increase in fluorescence emission at 485 nm when excited at […]. The reactions were therefore read at excitation 360 nm and emission was measured at 485 nm every 50 seconds for 45 minutes using a PerkinElmer EnVision Multilabel Plate Reader.
The final buffer conditions for Tyk2, JAK1, JAK2, and JAK3 assays were as follows: 25 mM HEPES, pH 7.4, 10 mM MgCl2, 0.01% Triton X-100 and 1 mM DTT.
Two-μL aliquots of these were transferred to a fresh plate for a ten-fold intermediate dilution with assay buffer. Five-μL aliquots of the diluted compounds were then transferred to 20-μL of assay mixtures described in Examples A, B, C and D for a final concentration of DMSO of 2%. […] For each plate, percent of control (POC) values were calculated for each well according to the following equation: […]
IC50's were estimated from the POC's using a standard 4-parameter logistic model:
The IC50 is defined as the concentration of inhibitor at which the POC equals 50 for the fitted curve.
Compounds of Formula I were screened for their ability to inhibit JAK2 using the general enzyme inhibition assay method, in which the assay mixture contained 1 mM ATP, 10 μM Omnia® Y7 peptide (Catalog # IVGN KNZ3071C, Invitrogen Corporation, Carlsbad, Calif.) and 4 nM JAK2 in a total volume of 25 μL. JAK2 was purchased from Invitrogen Corporation, Carlsbad, Calif. (catalog # IVGN PV4288).

The mark [5] stands for this setting: JAK1 Enzyme IC50 1 mM ATP, 1 mM ATP, averaged IC50 ranges.

Where a name gives a salt, the structure may show the parent alone. Read-outs that look alike come from different tables or passages of the source.

JAK3, sequence (P52333 whole entry): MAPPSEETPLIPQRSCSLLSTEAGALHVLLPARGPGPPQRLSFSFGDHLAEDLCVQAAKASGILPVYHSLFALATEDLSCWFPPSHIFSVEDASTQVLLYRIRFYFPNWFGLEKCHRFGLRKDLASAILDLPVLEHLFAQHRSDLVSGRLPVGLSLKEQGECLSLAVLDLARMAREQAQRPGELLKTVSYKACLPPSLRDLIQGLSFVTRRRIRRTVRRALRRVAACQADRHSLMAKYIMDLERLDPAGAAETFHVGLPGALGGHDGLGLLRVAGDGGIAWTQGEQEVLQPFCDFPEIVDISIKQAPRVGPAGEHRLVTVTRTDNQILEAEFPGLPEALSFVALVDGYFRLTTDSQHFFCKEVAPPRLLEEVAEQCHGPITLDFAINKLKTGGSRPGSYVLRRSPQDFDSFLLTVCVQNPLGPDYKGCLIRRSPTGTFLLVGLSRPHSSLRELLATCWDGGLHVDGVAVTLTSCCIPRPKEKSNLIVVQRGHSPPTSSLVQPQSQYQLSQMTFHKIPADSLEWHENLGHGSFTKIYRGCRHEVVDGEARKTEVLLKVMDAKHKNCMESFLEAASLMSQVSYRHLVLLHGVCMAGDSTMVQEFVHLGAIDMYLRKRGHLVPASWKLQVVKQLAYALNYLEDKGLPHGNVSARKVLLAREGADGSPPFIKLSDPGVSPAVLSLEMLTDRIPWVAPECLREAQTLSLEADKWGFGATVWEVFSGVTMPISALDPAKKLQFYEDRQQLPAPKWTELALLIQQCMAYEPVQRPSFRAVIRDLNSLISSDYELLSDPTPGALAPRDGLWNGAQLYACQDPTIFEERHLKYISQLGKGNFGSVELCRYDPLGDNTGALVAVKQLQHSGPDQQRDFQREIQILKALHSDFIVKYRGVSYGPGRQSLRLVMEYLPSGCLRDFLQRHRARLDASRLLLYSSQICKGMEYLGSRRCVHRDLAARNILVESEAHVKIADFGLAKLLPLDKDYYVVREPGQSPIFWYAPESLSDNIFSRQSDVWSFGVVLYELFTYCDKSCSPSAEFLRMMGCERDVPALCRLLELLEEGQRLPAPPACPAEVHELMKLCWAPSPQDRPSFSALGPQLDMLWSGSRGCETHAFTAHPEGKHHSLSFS
JAK2, sequence (O60674 whole entry): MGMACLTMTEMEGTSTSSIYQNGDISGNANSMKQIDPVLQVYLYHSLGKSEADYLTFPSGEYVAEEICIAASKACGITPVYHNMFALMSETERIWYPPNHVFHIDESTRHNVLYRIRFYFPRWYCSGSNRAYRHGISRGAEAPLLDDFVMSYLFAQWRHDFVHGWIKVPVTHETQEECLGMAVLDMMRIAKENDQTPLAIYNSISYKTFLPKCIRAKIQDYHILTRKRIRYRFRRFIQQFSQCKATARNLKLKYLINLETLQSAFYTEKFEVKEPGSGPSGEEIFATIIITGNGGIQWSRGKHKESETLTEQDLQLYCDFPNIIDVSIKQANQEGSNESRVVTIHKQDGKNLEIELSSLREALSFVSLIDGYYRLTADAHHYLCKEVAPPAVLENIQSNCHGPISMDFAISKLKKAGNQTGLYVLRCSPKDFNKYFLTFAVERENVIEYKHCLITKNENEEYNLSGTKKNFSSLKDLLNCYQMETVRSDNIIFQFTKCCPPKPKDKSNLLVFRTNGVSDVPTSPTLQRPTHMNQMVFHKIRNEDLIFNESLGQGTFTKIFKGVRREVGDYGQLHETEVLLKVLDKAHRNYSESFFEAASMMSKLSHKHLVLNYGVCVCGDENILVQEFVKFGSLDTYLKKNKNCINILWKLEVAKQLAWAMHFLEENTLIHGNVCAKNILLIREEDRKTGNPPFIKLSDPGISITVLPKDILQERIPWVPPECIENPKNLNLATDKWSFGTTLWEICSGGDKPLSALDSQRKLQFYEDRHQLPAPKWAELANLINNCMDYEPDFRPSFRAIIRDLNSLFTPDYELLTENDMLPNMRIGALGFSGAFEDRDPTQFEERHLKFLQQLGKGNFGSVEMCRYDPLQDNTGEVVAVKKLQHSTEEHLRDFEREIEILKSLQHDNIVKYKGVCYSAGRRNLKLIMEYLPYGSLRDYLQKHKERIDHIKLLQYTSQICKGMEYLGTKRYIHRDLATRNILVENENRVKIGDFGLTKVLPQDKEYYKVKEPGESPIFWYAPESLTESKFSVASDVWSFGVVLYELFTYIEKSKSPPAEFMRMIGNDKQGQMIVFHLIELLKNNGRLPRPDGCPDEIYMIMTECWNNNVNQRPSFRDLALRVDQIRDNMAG
Human Tyk2 kinase domain, sequence (P29597 886-1187): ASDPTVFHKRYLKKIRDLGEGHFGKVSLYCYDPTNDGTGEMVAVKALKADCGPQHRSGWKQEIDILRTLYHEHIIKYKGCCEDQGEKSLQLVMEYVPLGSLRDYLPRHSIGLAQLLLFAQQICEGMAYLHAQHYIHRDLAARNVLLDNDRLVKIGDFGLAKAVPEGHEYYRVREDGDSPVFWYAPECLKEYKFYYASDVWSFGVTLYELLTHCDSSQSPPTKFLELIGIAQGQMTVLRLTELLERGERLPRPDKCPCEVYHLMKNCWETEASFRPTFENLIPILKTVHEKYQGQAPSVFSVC

With `CCC(CC)n1cc(-c2nc(-c3cnn(CCN(C)S(C)(=O)=O)c3)cn3nccc23)cn1` [Example 9, N-methyl-N-(2-(4-(4-(1-(pentan-3-yl)-1H-pyrazol-4-yl)pyrazolo[1,5-a]pyrazin-6-yl)-1H-pyrazol-1-yl)ethyl)methanesulfonamide], the 50% inhibitory concentration (IC50) (commonly the midpoint of a concentration-inhibition curve) in experiment [1] was in the range of 1000 to 10000 nM; in experiment [2], 10 to 100 nM; in experiment [3] (setting [5]) it was 100 to 1000 nM; in experiment [4], 10 to 100 nM.

Take `CCC(CC)n1cc(-c2nc(-c3cnn(CCN(C)C)c3)cn3nccc23)cn1` [Example 10, N,N-dimethyl-2-(4-(4-(1-(pentan-3-yl)-1H-pyrazol-4-yl)pyrazolo[1,5-a]pyrazin-6-yl)-1H-pyrazol-1-yl)ethanamine]: the IC50 in experiment [1] lay within 1000 to 10000 nM; in experiment [2], 10 to 100 nM; in experiment [3] it was 1000 to 10000 nM; in experiment [4], 10 to 100 nM.

`CCC(CC)n1cc(-c2nc(-c3cnn(CC4CCS(=O)(=O)CC4)c3)cn3nccc23)cn1` [Example 11, 4-((4-(4-(1-(pentan-3-yl)-1H-pyrazol-4-yl)pyrazolo[1,5-a]pyrazin-6-yl)-1H-pyrazol-1-yl)methyl)tetrahydro-2H-thiopyran 1,1-dioxide]: the IC50 is 1000 to 10000 nM in experiment [1], 10 to 100 nM in experiment [2], 1000 to 10000 nM in experiment [3] and 10 to 100 nM in experiment [4].

As for `CCC(CC)n1cc(-c2nc(-c3cnn(CCCN(C)C)c3)cn3nccc23)cn1` [Example 12, N,N-dimethyl-3-(4-(4-(1-(pentan-3-yl)-1H-pyrazol-4-yl)pyrazolo[1,5-a]pyrazin-6-yl)-1H-pyrazol-1-yl)propan-1-amine], the IC50 in experiment [1] was in the range of 1000 to 10000 nM; in experiment [2], 100 to 1000 nM; in experiment [3], 1000 to 10000 nM; in experiment [4] it was 100 to 1000 nM.

With `CCC(CC)n1cc(-c2nc(-c3cnn(C[C@@H](C)CO)c3)cn3nccc23)cn1` [Example 14, (R)-2-methyl-3-(4-(4-(1-(pentan-3-yl)-1H-pyrazol-4-yl)pyrazolo[1,5-a]pyrazin-6-yl)-1H-pyrazol-1-yl)propan-1-ol], the IC50 in experiment [1] lay within 1000 to 10000 nM; in experiment [2], 10 to 100 nM; in experiment [3] (setting [5]), 10 to 100 nM; in experiment [4] it was 10 to 100 nM.

Take `CCC(CC)n1cc(-c2nc(-c3cnn(C[C@H](C)CO)c3)cn3nccc23)cn1` [Example 15, (S)-2-methyl-3-(4-(4-(1-(pentan-3-yl)-1H-pyrazol-4-yl)pyrazolo[1,5-a]pyrazin-6-yl)-1H-pyrazol-1-yl)propan-1-ol]: the concentration for half-maximal inhibition (IC50) in experiment [1] was 1000 to 10000 nM; in experiment [2], 10 to 100 nM; in experiment [3] (setting [5]) it was 10 to 100 nM; in experiment [4], 10 to 100 nM.

For the molecule `CCC(CC)n1cc(-c2nc(-c3cnn(CC4(CO)COC4)c3)cn3nccc23)cn1` [Example 16, (3-((4-(4-(1-(pentan-3-yl)-1H-pyrazol-4-yl)pyrazolo[1,5-a]pyrazin-6-yl)-1H-pyrazol-1-yl)methyl)oxetan-3-yl)methanol], the IC50 was in the range of 1000 to 10000 nM in experiment [1], 10 to 100 nM in experiment [2], 10 to 100 nM in experiment [3] and 10 to 100 nM in experiment [4].

Take `CCC(CC)n1cc(-c2nc(-c3cnn(C[C@@H]4CCC(=O)N4)c3)cn3nccc23)cn1` [Example 17, (S)-5-((4-(4-(1-(pentan-3-yl)-1H-pyrazol-4-yl)pyrazolo[1,5-a]pyrazin-6-yl)-1H-pyrazol-1-yl)methyl)pyrrolidin-2-one]: the concentration for half-maximal inhibition (IC50) in experiment [1] fell in the range of 1000 to 10000 nM; in experiment [2], 10 to 100 nM; in experiment [3] it was 100 to 1000 nM; in experiment [4] it was 10 to 100 nM.

As to `CCC(CC)n1cc(-c2nc(-c3cnn(C[C@H]4CCC(=O)N4)c3)cn3nccc23)cn1` [Example 18, (R)-5-((4-(4-(1-(pentan-3-yl)-1H-pyrazol-4-yl)pyrazolo[1,5-a]pyrazin-6-yl)-1H-pyrazol-1-yl)methyl)pyrrolidin-2-one], the IC50 in experiment [1] was in the range of 1000 to 10000 nM; in experiment [2], 10 to 100 nM; in experiment [3] it was 10 to 100 nM; in experiment [4] it was 10 to 100 nM.

With `CCC(CC)n1cc(-c2nc(-c3cnn(CCCO)c3)cn3nccc23)cn1` [Example 19, 3-(4-(4-(1-(pentan-3-yl)-1H-pyrazol-4-yl)pyrazolo[1,5-a]pyrazin-6-yl)-1H-pyrazol-1-yl)propan-1-ol], the IC50 in experiment [1], in experiment [2], in experiment [3] and in experiment [4] was 1000 to 10000 nM throughout.

As for `CCC(CC)n1cc(-c2nc(-c3cnn(CCO)c3)cn3nccc23)cn1` [Example 20, 2-(4-(4-(l-(pentan-3-yl)-1H-pyrazol-4-yl)pyrazolo[1,5-a]pyrazin-6-yl)-1H-pyrazol-1-yl)ethanol], the IC50 lay in the range of 1000 to 10000 nM in experiment [1], 10 to 100 nM in experiment [2], 10 to 100 nM in experiment [3] and 10 to 100 nM in experiment [4].

With `CC[C@@H](C)n1cc(-c2nc(-c3cnn(C4CCS(=O)(=O)CC4)c3)cn3nccc23)cn1` [Example 21, (R)-4-(4-(4-(1-(sec-butyl)-1H-pyrazol-4-yl)pyrazolo[1,5-a]pyrazin-6-yl)-1H-pyrazol-1-yl)tetrahydro-2H-thiopyran 1,1-dioxide], the concentration for half-maximal inhibition (IC50) in experiment [1] was in the range of 1000 to 10000 nM; in experiment [2], 100 to 1000 nM; in experiment [3] it was 1000 to 10000 nM; in experiment [4], 10 to 100 nM.

`CCC(CC)n1cc(-c2nc(-c3cnn(CCS(C)(=O)=O)c3)cn3nccc23)cn1` [Example 22, 6-(1-(2-(methylsulfonyl)ethyl)-1H-pyrazol-4-yl)-4-(1-(pentan-3-yl)-1H-pyrazol-4-yl)pyrazolo[1,5-a]pyrazine]: the IC50 in experiment [1] was in the range of 1000 to 10000 nM; in experiment [2], 10 to 100 nM; in experiment [3] it was 100 to 1000 nM; in experiment [4], 10 to 100 nM.

With `CCC(CC)n1cc(-c2nc(-c3cnn(CCS(=O)(=O)N(C)C)c3)cn3nccc23)cn1` [Example 23, N,N-dimethyl-2-(4-(4-(1-(pentan-3-yl)-1H-pyrazol-4-yl)pyrazolo[1,5-a]pyrazin-6-yl)-1H-pyrazol-1-yl)ethanesulfonamide], the IC50 in experiment [1] was in the range of 1000 to 10000 nM; in experiment [2] it was 10 to 100 nM; in experiment [3], 100 to 1000 nM; in experiment [4], 10 to 100 nM.

In the case of `CCC(CC)n1cc(-c2nc(-c3cnn(C4CCNCC4)c3)cn3nccc23)cn1` [Example 25, 4-(1-(pentan-3-yl)-1H-pyrazol-4-yl)-6-(1-(piperidin-4-yl)-1H-pyrazol-4-yl)pyrazolo[1,5a]pyrazine hydrochloride], the IC50 was 1000 to 10000 nM in experiment [1], 10 to 100 nM in experiment [2], 100 to 1000 nM in experiment [3] and 10 to 100 nM in experiment [4].

As to `CC(C)n1cc(-c2nc(-c3cnn(C4CCNCC4)c3)cn3nccc23)cn1` [Example 26, 4-(1-isopropyl-1H-pyrazol-4-yl)-6-(1-(piperidin-4-yl)-1H-pyrazol-4-yl)pyrazolo[1,5 a]pyrazine], the IC50 was in the range of 1000 to 10000 nM in experiment [1], 100 to 1000 nM in experiment [2], 1000 to 10000 nM in experiment [3] and 100 to 1000 nM in experiment [4].

For `CCC(CC)n1cc(-c2nc(-c3cnn([C@@H]4CCCNC4)c3)cn3nccc23)cn1` [Example 29, (R)-4-(1-(pentan-3-yl)-1H-pyrazol-4-yl)-6-(1-(piperidin-3-yl)-1H-pyrazol-4-yl)pyrazolo[1,5-a]pyrazine], the IC50 lay within 1000 to 10000 nM in experiment [1], 10 to 100 nM in experiment [2], 100 to 1000 nM in experiment [3] and 10 to 100 nM in experiment [4].

For the origin of these results see patent US10189845B2, “4,6-substituted-pyrazolo[1,5-a]pyrazines as janus kinase inhibitors” (ARRAY BIOPHARMA INC., priority 2014, dated 2019).
